Measurements from US12180226B2, “Spirotricycle RIPK1 inhibitors and methods of uses thereof” (Merck Sharp & Dohme LLC, priority 2021, dated 2024).
pEC50: −log10 of the molar value. Where a name gives a salt, the structure may show the parent alone.

Biological target: RIPK1 (recombinant GST-RIPK1 kinase domain, residues 1-327) (Homo sapiens (Human), UniProt Q13546)
Experiment: RIPK1-ADP-Glo Enzymatic Assay
Assay type: biochemical
Details: ADP-Glo; 25 nM GST-RIPK1, 300 μM ATP; assay lower limit ~25 nM; read-out: RIPK1 V0 Ec50
Method in brief: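 ADP-Glo luminescence read after 150 min kinase reaction (300 μM ATP, 3 μM dephosphorylated MBP) using 25 nM Sf21-made GST-kinase domain (1-327), preincubated 30 min with compound. HEPES pH 7.3, 1% DMSO; ten-point 1:3 series from 100000 nM, EC50 via four-parameter sigmoidal regression.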

Sequence of RIPK1 (recombinant GST-RIPK1 kinase domain, residues 1-327) (Q13546 1-327): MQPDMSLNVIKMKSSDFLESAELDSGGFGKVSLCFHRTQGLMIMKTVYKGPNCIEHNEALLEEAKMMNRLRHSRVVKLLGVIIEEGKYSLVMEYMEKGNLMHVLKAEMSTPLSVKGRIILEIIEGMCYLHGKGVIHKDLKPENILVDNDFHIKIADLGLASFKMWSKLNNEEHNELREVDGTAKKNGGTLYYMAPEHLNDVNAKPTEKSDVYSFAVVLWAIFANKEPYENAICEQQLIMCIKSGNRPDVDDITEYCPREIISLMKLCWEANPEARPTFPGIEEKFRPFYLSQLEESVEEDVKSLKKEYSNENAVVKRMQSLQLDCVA

Structure (SMILES)	pEC50
Cc1ccc(F)c(C(=O)N2CCC3(CC2)O[C@@H]2CC[C@@H](c4cc(F)cc(F)c4)N2C3=O)n1 [Example 6.104, (5′S,7a′R)-5′-(3,5-difluorophenyl)-1-(3-fluoro-6-methylpyri-dine-2-carbonyl)tetra-hydro-3′H-spiro[piperi-dine-4,2′-pyrrolo[2,1-b][1,3]oxazol]-3′-one]	7.49
COc1nc(N2CCC3(CC2)O[C@@H]2CC[C@@H](c4ccccc4)N2C3=O)ncc1F [Example 11.29, (5′S,7a′R)-1-(5-fluoro-4-methoxypyrimidin-2-yl)-5′-phenyltetrahydro-3′H-spiro[piperidine-4,2′-pyrrolo[2,1-b][1,3]oxazol]-3′-one]	> 7.60
COc1cc(N2CCC3(CC2)O[C@@H]2CC[C@@H](c4ccccc4)N2C3=O)ncn1 [Example 4.39, (5′S,7a′R)-1-(6-methoxypyrimidin-4-yl)-5′-phenyltetrahydro-3′H-spiro[piperidine-4,2′-pyrrolo[2,1-b] [1,3]oxazol]-3′-one]	7.65
O=C1N2[C@@H](CC[C@H]2c2ccccc2)SC12CCN(c1ccnc3ccnn13)CC2 [Example 4.116, (5′S,7a′R)-5′-phenyl-1-(pyrazolo[1,5-a]pyrimidin-7-yl)tetrahydro-3′H-spiro[piperidine-4,2′-pyrrolo[2,1-b]thiazol]-3′-one]	> 7.60
N#Cc1ccc(N2CCC3(CC2)O[C@@H]2CC[C@@H](c4ccccc4F)N2C3=O)n2ncnc12 [Example 4.249, 5-[(5′S,7a′R)-5′-(2-fluorophenyl)-3′-oxotetrahydro-1H,3′H-spiro[piperidine-4,2′-pyrrolo[2,1-b] [1,3]oxazol]-1-yl][1,2,4]triazolo[1,5-a] pyridine-8-carbonitrile]	> 7.60
O=C1N2[C@@H](CC[C@H]2c2ccccc2)OC12CCN(c1nccc(C3CC3)n1)CC2 [Example 11.12, (5′S,7a′R)-1-(4-cyclopropylpyrimidin-2-yl)-5′-phenyltetrahydro-3′H-spiro[piperidine-4,2′-pyrrolo[2,1-b][1,3]oxazol]-3′-one]	7.01
N#Cc1cccc(N2CCC3(CC2)O[C@@H]2CC[C@@H](c4ccccc4)N2C3=O)n1 [Example 4.29, 6-[(5′S,7a′R)-3′-oxo-5′-phenyltetrahydro-1H,3′H-spiro[piperidine-4,2′-pyrrolo[2,1-b] [1,3]oxazol]-1-yl]pyridine-2-carbonitrile]	> 7.60
O=C(c1cc2n(n1)CCCC2)N1CCC2(CC1)O[C@@H]1CC[C@@H](c3cc(F)cc(F)c3)N1C2=O [Example 5.75, (5′S,7a′R)-5′-(3,5-difluoro-phenyl)-1-(4,5,6,7-tetra-hydropyrazolo[1,5-a]-pyridine-2-carbonyl)tetra-hydro-3′H-spiro[piperi-dine-4,2′-pyrrolo[2,1-b]oxazol]-3′-one]	6.28
C#Cc1ccccc1C(=O)N1CCC2(CC1)O[C@@H]1CC[C@@H](c3cc(F)cc(F)c3)N1C2=O [Example 5.23, (5′S,7a′R)-5′-(3,5-difluoro-phenyl)-1-(2-ethynyl-benzoyl)tetrahydro-3′H-spiro[piperidine-4,2′-pyrrolo[2,1-b]oxazol]-3′-one]	6.84
COc1ccc(F)c(C(=O)N2CCC3(CC2)O[C@@H]2CC[C@@H](c4cc(F)cc(F)c4)N2C3=O)c1 [Example 6.6, (5′S,7a′R)-5′-(3,5-difluorophenyl)-1-(2-fluoro-5-methoxy-benzene-1-carbonyl) tetrahydro-3′H-spiro [piperidine-4,2′-pyrrolo[2,1-b][1,3]oxazol]-3′-one]	> 7.60
N#Cc1cc(N2CCC3(CC2)O[C@@H]2CC[C@@H](c4ccccc4)N2C3=O)ncn1 [Example 4.40, 6-[(5′S,7a′R)-3′-oxo-5′-phenyltetrahydro-1H,3′H-spiro[piperidine-4,2′-pyrrolo[2,1-b] [1,3]oxazol]-1-yl]pyrimidine-4-carbonitrile]	7.49
N#Cc1cn[nH]c1C(=O)N1CCC2(CC1)O[C@@H]1CC[C@@H](c3cc(F)cc(F)c3)N1C2=O [Example 5.40, 5-((5′S,7a′R)-5′-(3,5-difluorophenyl)-3′-oxo-tetrahydro-3′H-spiro [piperidine-4,2′-pyrrolo-[2,1-b]oxazole]-1-carbon-yl)-1H-pyrazole-4-car-bonitrile]	6.34
O=C1N2[C@@H](CC[C@H]2c2ccccc2)OC12CCN(c1ccc(-c3cc(O)no3)cn1)CC2 [Example 4.193, (5′S,7a′R)-1-[5-(3-hydroxy-1,2-oxazol-5-yl)pyridin-2-yl]-5′-phenyltetrahydro-3′H-spiro[piperidine-4,2′-pyrrolo[2,1-b] [1,3]oxazol]-3′-one]	> 7.60
CC1C[C@@]2(CCN1C(=O)c1ccccc1)O[C@@H]1CC[C@@H](c3cccc(F)c3)N1C2=O (stereo partly drawn) [Example 6.161, (4R,5′S,7a′R)-1-(benzenecarbonyl)-5′-(3-fluorophenyl)-2-methyltetrahydro-3′H-spiro[piperidine-4,2′-pyrrolo[2,1-b][1,3]-oxazol]-3′-one]	6.56
Cc1nc(N2CCC3(CC2)O[C@@H]2CC[C@@H](c4ccccc4)N2C3=O)ncc1-c1ncco1 [Example 21.11, (5′S,7a′R)-1-[4-methyl-5-(1,3-oxazol-2-yl)pyrimidin-2-yl]-5′-phenyltetrahydro-3′H-spiro[piperidine-4,2′-pyrrolo[2,1-b][1,3]oxazol]-3′-one]	> 7.60
O=C(c1ccccc1F)N1CCC2(CC1)O[C@@H]1CC[C@@H](c3cccc(F)c3)N1C2=O [Example 1.7, (5′S,7a′R)-1-(2-fluorobenzene-1-carbonyl)-5′-(3-fluorophenyl)tetrahydro-3′H-spiro[piperidine-4,2′-pyrrolo[2,1-b] [1,3]oxazol]-3′-one]	> 7.60
O=C1N2[C@@H](CC[C@H]2c2ccccc2)OC12CCN(c1ccc(-c3nc4ccccc4[nH]3)cn1)CC2 [Example 4.166, (5′S,7a′R)-1-[5-(1H-benzimidazol-2-yl)pyridin-2-yl]-5′-phenyltetrahydro-3′H-spiro[piperidine-4,2′-pyrrolo[2,1-b] [1,3]oxazol]-3′-one]	7.25
N#Cc1cc(N2CC3(C2)O[C@@H]2CC[C@@H](c4cc(F)cc(F)c4)N2C3=O)ncn1 [Example 4.118, 6-((5′S,7a′R)-5′-(3,5-difluorophenyl)-3′-oxotetrahydro-3′H-spiro[azetidine-3,2′-pyrrolo[2,1-b]oxazol]-1-yl)pyrimidine-4-carbonitrile]	6.64
C#Cc1cccc(C(=O)N2CCC3(CC2)O[C@@H]2CC[C@@H](c4cc(F)cc(F)c4)N2C3=O)c1 [Example 5.25, (5′S,7a′R)-5′-(3,5-difluoro-phenyl)-1-(3-ethynyl-benzoyl)tetrahydro-3′H-spiro[piperidine-4,2′-pyrrolo[2,1-b]oxazol]-3′-one]	> 7.60

Next, values leading:

pEC50	Structure (SMILES)
> 7.60	O=C1N2C(=NC13CCN(c1ccnc4c(F)cnn14)CC3)CC[C@H]2c1cc(F)cc(F)c1 [Example 4.79, (S)-5′-(3,5-difluorophenyl)-1-(3-fluoropyrazolo[1,5-a]pyrimidin-7-yl)-6′,7′-dihydro-3′H,5′H-spiro[piperidine-4,2′-pyrrolo[1,2-a]imidazol]-3′-one]
> 7.60	COc1ccc(N2CCC3(CC2)O[C@@H]2CC[C@@H](c4cc(F)cc(F)c4)N2C3=O)n2nccc12 [Example 19.1, (5′S,7a′R)-5′-(3,5-Difluorophenyl)-1-(4-methoxypyrazolo[1,5-a]pyridin-7-yl)tetrahydro-3′H-spiro[piperidine-4,2′-pyrrolo[2,1-b]oxazol]-3′-one, TFA]
7.24	O=C(c1ccccn1)N1CCC2(CC1)O[C@@H]1CC[C@@H](c3cc(F)cc(F)c3)N1C2=O [Example 6.101, (5′S,7a′R)-5′-(3,5-difluorophenyl)-1-(pyridine-2-carbonyl) tetrahydro-3′H-spiro [piperidine-4,2′-pyrrolo[2,1-b][1,3]-oxazol]-3′-one]
7.29	C[C@@]12CC[C@@H](c3ccccc3)N1C(=O)C1(CCN(c3ccnc4c(F)cnn34)CC1)O2 [Example 4.81, (5′S,7a′R)-1-(3-fluoropyrazolo[1,5-a]pyrimidin-7-yl)-7a′-methyl-5′-phenyltetrahydro-3′H-spiro[piperidine-4,2′-pyrrolo[2,1-b] [1,3]oxazol]-3′-one]
7.34	Cc1nc(N2CCC3(CC2)O[C@@H]2CC[C@@H](c4cc(F)cc(F)c4)N2C3=O)ncc1OC(F)F [Example 4.58, (5′S,7a′R)-1-[5-(difluoromethoxy)-4-methylpyrimidin-2-yl]-5′-(3,5-difluorophenyl)tetrahydro-3′H-spiro[piperidine-4,2′-pyrrolo[2,1-b] [1,3]oxazol]-3′-one]
6.44	O=C1N2[C@@H](CC[C@H]2c2cc(F)cc(F)c2)OC12CCN(c1ncc(F)c3nncn13)CC2 [Example 13.13, (5′S,7a′R)-5′-(3,5-difluorophenyl)-1-(8-fluoro-[1,2,4]triazolo[4,3-c]pyrimidin-5-yl)tetrahydro-3′H-spiro[piperidine-4,2′-pyrrolo[2,1-b]oxazol]-3′-one, TFA salt]
> 7.60	O=C1N2[C@@H](CC[C@H]2c2ccccc2)SC12CCN(c1ccnc3c(F)cnn13)CC2 [Example 4.132, (5′S,7a′R)-1-(3-fluoropyrazolo[1,5-a]pyrimidin-7-yl)-5′-phenyltetrahydro-3′H-spiro[piperidine-4,2′-pyrrolo[2,1-b]thiazol]-3′-one]
7.41	O=C(c1cccnc1)N1CCC2(CC1)O[C@@H]1CC[C@@H](c3cc(F)cc(F)c3)N1C2=O [Example 5.64, (5′S,7a′R)-5′-(3,5-difluoro-phenyl)-1-nicotinoyltetra-hydro-3′H-spiro[piperidine-4,2′-pyrrolo[2,1-b]oxazol]-3′-one]
7.20	Cc1cc2nccc(N3CCC4(CC3)O[C@@H]3CC[C@@H](c5cc(F)cc(F)c5)N3C4=O)n2n1 [Example 4.85, (5′S,7a′R)-5′-(3,5-difluorophenyl)-1-(2-methylpyrazolo[1,5-a]pyrimidin-7-yl)tetrahydro-3′H-spiro[piperidine-4,2′-pyrrolo[2,1-b]oxazol]-3′-one, TFA salt]
